From US20200369728A1, “PEPTIDOMIMETIC MACROCYCLES AND USES THEREOF” (Aileron Therapeutics, Inc., priority 2015, published 2020)
Bridge positions count the residues as written; N and C are the ends. Square brackets hold non-standard residues; d marks the D form. Peptide text beside a SMILES is read from it. 2Nal = N[C@@H](Cc1ccc2ccccc2c1)C(=O)O; R8 = C=CCCCCCC[C@@](C)(N)C(=O)O; Cba = N[C@@H](CC1CCC1)C(=O)O; S5 = C=CCCC[C@](C)(N)C(=O)O

Tests used:
SJSA-1 cells = experiment: Cell lysis by peptidomimetic macrocycles (LDH release); type: cell-based; details: SJSA-1, 1 h
How it was run: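 SJSA-1 cells plated the day before, switched to RPMI with 1% FBS, then exposed 1 h at 37 °C to macrocycle at final 50 μM to 6.25 μM in 0.5% DMSO. LDH released into the supernatant was measured by kit. Controls: 0.5% DMSO (non-lytic), 10 μM melittin and 1% Triton X-100 (lytic).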

Caspase 3 = Caspase 3 detection assay in SJSA1 cells; type: cell-based; details: SJSA1, 48 h, Caspase 3 activation over DMSO-treated cells

Compound | 6.25 μM % Lysed cells (1 h LDH) (SJSA-1 cells) [%] | 25 μM % Lysed cells (1 h LDH) (SJSA-1 cells) [%] | 50 μM % Lysed cells (1 h LDH) (SJSA-1 cells) [%] | caspase 0.3 μM (Caspase 3) | caspase 3 μM (Caspase 3) | caspase 10 μM (Caspase 3) | caspase 30 μM (Caspase 3) | caspase 1 μM (Caspase 3)
CC[C@H](C)[C@H](NC(=O)[C@H](C)NC(=O)[C@H](C)NC(=O)[C@]1(C)CCCC=CCCCCCC[C@@](C)(NC(=O)[C@H](Cc2ccccc2)NC(=O)[C@@H](NC(=O)[C@H](CC(C)C)NC(C)=O)[C@@H](C)O)C(=O)N[C@@H](C)C(=O)N[C@@H](Cc2ccc(O)cc2)C(=O)N[C@@H](Cc2c[nH]c3ccccc23)C(=O)N[C@@H](C)C(=O)N[C@@H](C)C(=O)N[C@@H](CC(C)C)C(=O)N1)C(=O)N[C@@H](C(N)=O)C(C)C (single isomer, unassigned) [compound 77] | −2 | 1 | −1 | 1 | 2 | 19 | 23 | –
CC[C@H](C)[C@H](NC(=O)[C@H](C)NC(=O)[C@H](CO)NC(=O)[C@]1(C)CCCC=CCCCCCC[C@@](C)(NC(=O)[C@H](Cc2ccccc2)NC(=O)[C@@H](NC(=O)[C@H](CC(C)C)NC(C)=O)[C@@H](C)O)C(=O)N[C@@H](C)C(=O)N[C@@H](Cc2ccc(O)cc2)C(=O)N[C@@H](Cc2c[nH]c3ccccc23)C(=O)N[C@@H](C)C(=O)N[C@@H](CCC(N)=O)C(=O)N[C@@H](CC(C)C)C(=O)N1)C(N)=O [compound 8] (Ac-LTF[R8]AYWAQL[S5]SAI-NH2; staple 4-11) | −1 | 1 | 1 | – | 1 | 19 | 25 | –
CC(=O)N[C@@H](CC(C)C)C(=O)N[C@H](C(=O)N[C@@H](Cc1ccccc1)C(=O)N[C@]1(C)CCCCCCC=CCCC[C@@](C)(C(=O)N[C@@H](C)C(=O)N[C@@H](C)C(=O)N[C@@H](C)C(=O)N[C@@H](C)C(=O)N[C@@H](C)C(=O)N[C@H](C)C(N)=O)NC(=O)[C@H](CC2CCC2)NC(=O)[C@H](CCC(N)=O)NC(=O)[C@H](C)NC(=O)[C@H](Cc2c[nH]c3ccccc23)NC(=O)[C@H](Cc2ccc(O)cc2)NC(=O)[C@H](CCC(=O)O)NC1=O)[C@@H](C)O (single isomer, unassigned) [compound 347] | 0 | 0 | 0 | 2 | 5 | 8 | 29 | 3
CC(=O)N[C@@H](CC(C)C)C(=O)N[C@H](C(=O)N[C@@H](Cc1ccccc1)C(=O)N[C@]1(C)CCCCCCC=CCCC[C@@](C)(C(=O)N[C@@H](C)C(=O)N[C@@H](C)C(=O)N[C@@H](C)C(=O)N[C@@H](C)C(=O)N[C@@H](C)C(=O)N[C@@H](C)C(=O)N[C@H](C)C(N)=O)NC(=O)[C@H](CC(C)C)NC(=O)[C@H](CCC(N)=O)NC(=O)[C@H](C)NC(=O)[C@H](Cc2c[nH]c3ccccc23)NC(=O)[C@H](Cc2ccc(O)cc2)NC(=O)[C@H](C)NC1=O)[C@@H](C)O (single isomer, unassigned) [compound 317] | 0 | 0 | 0 | 3 | 9 | 26 | 35 | 4
CC(=O)N[C@@H](CC(C)C)C(=O)N[C@H](C(=O)N[C@@H](Cc1ccccc1)C(=O)N[C@]1(C)CCCCCCC=CCCC[C@@](C)(C(=O)N[C@@H](CO)C(=O)N[C@@H](C)C(=O)N[C@@H](C)C(N)=O)NC(=O)[C@H](CC2CCC2)NC(=O)[C@H](CCC(N)=O)NC(=O)[C@H](C)NC(=O)[C@H](Cc2ccc3ccccc3c2)NC(=O)[C@H](Cc2ccc(O)cc2)NC(=O)[C@H](CCC(=O)O)NC1=O)[C@@H](C)O [compound 254] (Ac-LTF[R8]EY[2Nal]AQ[Cba][S5]SAA-NH2; staple 4-11) | 11 | 60 | 75 | 1 | 7 | 14 | 22 | 3
CCCC[C@H](NC(=O)[C@H](C)NC(=O)[C@H](C)NC(=O)[C@]1(C)CCCC=CCCCCCC[C@@](C)(NC(=O)[C@H](Cc2ccccc2)NC(=O)[C@@H](NC(=O)[C@H](CC(C)C)NC(C)=O)[C@@H](C)O)C(=O)N[C@@H](C)C(=O)N[C@@H](Cc2ccc(O)cc2)C(=O)N[C@@H](Cc2c[nH]c3ccccc23)C(=O)N[C@@H](C)C(=O)N[C@@H](C)C(=O)N[C@@H](CC(C)C)C(=O)N1)C(=O)N[C@@H](C(N)=O)C(C)C (single isomer, unassigned) [compound 80] | 0 | 1 | 5 | 1 | 2 | 13 | 20 | –
CC(=O)N[C@@H](CCC(=O)O)C(=O)N[C@H](C(=O)N[C@@H](Cc1ccccc1)C(=O)N[C@]1(C)CCCCCCC=CCCC[C@@](C)(C(=O)N[C@@H](CO)C(=O)N[C@H](C(=O)N[C@@H](CO)C(N)=O)C(C)C)NC(=O)[C@H](CC(C)C)NC(=O)[C@H](CCC(N)=O)NC(=O)[C@H](C)NC(=O)[C@H](Cc2c[nH]c3ccccc23)NC(=O)[C@H](Cc2ccc(O)cc2)NC(=O)[C@H](C(C)C)NC1=O)[C@@H](C)O [compound 130] (Ac-ETF[R8]VYWAQL[S5]SVS-NH2; staple 4-11) | 1 | 0 | −1 | 1 | 2 | 6 | 17 | –
CC(=O)N[C@@H](CC(C)C)C(=O)N[C@H](C(=O)N[C@@H](Cc1ccccc1)C(=O)N[C@]1(C)CCCCCCC=CCCC[C@@](C)(C(=O)N[C@@H](CO)C(=O)NC(C)(C)C(=O)N[C@@H](C)C(=O)N[C@@H](C)C(N)=O)NC(=O)[C@H](CC(C)C)NC(=O)[C@H](CCC(N)=O)NC(=O)[C@H](C)NC(=O)[C@H](Cc2c[nH]c3ccccc23)NC(=O)[C@H](Cc2ccc(O)cc2)NC(=O)[C@H](C)NC1=O)[C@@H](C)O (single isomer, unassigned) [compound 26] | 2 | −1 | 0 | 1 | 1 | 3 | 14 | –
CC(=O)N[C@@H](CC(C)C)C(=O)N[C@H](C(=O)N[C@@H](Cc1ccccc1)C(=O)N[C@]1(C)CCCCCCC=CCCC[C@@](C)(C(=O)N[C@@H](CO)C(=O)N[C@@H](C)C(=O)N[C@@H](C)C(N)=O)NC(=O)[C@H](C2CCCC2)NC(=O)[C@H](CCC(N)=O)NC(=O)[C@H](C)NC(=O)[C@H](Cc2c[nH]c3ccccc23)NC(=O)[C@H](Cc2ccc(O)cc2)NC(=O)[C@H](CCC(=O)O)NC1=O)[C@@H](C)O (single isomer, unassigned) [compound 149] | 6 | 7 | 21 | 1 | 2 | 4 | 10 | –
CC(=O)N[C@@H](CC(C)C)C(=O)N[C@H](C(=O)N[C@@H](Cc1ccccc1)C(=O)N[C@]1(C)CCCCCCC=CCCC[C@@](C)(C(=O)N[C@@H](C)C(=O)N[C@@H](C)C(=O)N[C@@H](C)C(=O)N[C@@H](C)C(=O)N[C@@H](C)C(=O)N[C@@H](C)C(=O)N[C@H](C)C(N)=O)NC(=O)[C@H](CC(C)C)NC(=O)[C@H](CCC(N)=O)NC(=O)[C@H](C)NC(=O)[C@H](Cc2c[nH]c3ccccc23)NC(=O)[C@H](Cc2ccc(O)cc2)NC(=O)[C@H](CCC(=O)O)NC1=O)[C@@H](C)O (single isomer, unassigned) [compound 343] | 0 | 0 | 0 | 1 | 2 | 5 | 29 | 1
CC(=O)N[C@@H](CC(C)C)C(=O)N[C@H](C(=O)N[C@@H](Cc1ccccc1)C(=O)N[C@]1(C)CCCCCCC=CCCC[C@@](C)(C(=O)N[C@@H](CO)C(=O)N[C@H](C(=O)N[C@@H](CO)C(N)=O)C(C)C)NC(=O)[C@H](CC(C)C)NC(=O)[C@H](CCC(N)=O)NC(=O)[C@H](C)NC(=O)[C@H](Cc2c[nH]c3ccccc23)NC(=O)[C@H](Cc2ccc(O)cc2)NC(=O)[C@H](C(C)C)NC1=O)[C@@H](C)O (single isomer, unassigned) [compound 142] | 1 | 1 | 3 | 1 | 2 | 15 | 20 | –
CC(=O)N[C@@H](CC(C)C)C(=O)N[C@H](C(=O)N[C@@H](Cc1ccccc1)C(=O)N[C@]1(C)CCCCCCC=CCCC[C@@](C)(C(=O)N[C@@H](C)C(=O)N[C@@H](C)C(=O)N[C@@H](Cc2ccccc2)C(=O)N[C@H](C)C(N)=O)NC(=O)[C@H](CC(C)C)NC(=O)[C@H](CCC(N)=O)NC(=O)[C@H](C)NC(=O)[C@H](Cc2c[nH]c3ccccc23)NC(=O)[C@H](Cc2ccc(O)cc2)NC(=O)[C@H](CCC(=O)O)NC1=O)[C@@H](C)O (single isomer, unassigned) [compound 218] | 0 | −4 | 1 | 1 | 2 | 8 | 18 | –
